Experimental data taken from ChEMBL document CHEMBL5727861, “Compounds and methods for the enhanced degradation of targeted proteins” (2020).

Target: von Hippel-Lindau disease tumor suppressor (Homo sapiens, UniProt P40337)
Experiment: Compounds were transferred from the stock plate to the assay plate and diluted into running buffer containing no DMSO. All compounds were run as a six-concentration series with a final assay top concentration of 100 uM. Data analysis was performed in Scrubber 2 (BioLogic software, Campbell, Australia). Blanks were subtracted and data was corrected for DMSO using a standard DMSO curve.

Sequence of von Hippel-Lindau disease tumor suppressor (P40337 whole entry): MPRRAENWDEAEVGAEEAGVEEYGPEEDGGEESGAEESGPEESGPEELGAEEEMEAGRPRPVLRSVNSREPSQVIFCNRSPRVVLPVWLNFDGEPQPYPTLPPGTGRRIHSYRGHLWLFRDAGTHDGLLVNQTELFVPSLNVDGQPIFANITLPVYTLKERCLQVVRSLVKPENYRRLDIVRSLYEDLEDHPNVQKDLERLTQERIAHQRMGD

Kd: 13 µM
Compound: COc1cc([C@H](C(=O)N2C[C@H](O)C[C@H]2C(=O)NCc2ccc(-c3scnc3C)cc2)C(C)C)on1
